# Measured values reported in ChEMBL document CHEMBL1142318, “Azetidine based transition state analogue inhibitors of N-ribosyl hydrolases and phosphorylases” (J Med Chem, 2008).
# How the values were obtained:
# [1] = target: T1, Purine nucleoside phosphorylase (Plasmodium falciparum, UniProt Q8T9Z7); assay: Inhibition of Plasmodium falciparum PNP
# T1 sequence (Q8T9Z7 whole entry): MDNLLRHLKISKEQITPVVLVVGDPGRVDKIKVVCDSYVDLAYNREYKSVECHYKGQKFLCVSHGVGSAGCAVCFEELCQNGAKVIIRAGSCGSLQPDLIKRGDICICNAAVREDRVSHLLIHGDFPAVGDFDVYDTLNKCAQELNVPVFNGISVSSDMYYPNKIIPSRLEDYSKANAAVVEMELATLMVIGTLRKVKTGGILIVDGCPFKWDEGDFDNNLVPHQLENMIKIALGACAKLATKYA
# [2] = target: T2, Purine nucleoside phosphorylase (Homo sapiens, UniProt P00491); assay: Inhibition of human PNP
# T2 sequence (P00491 whole entry): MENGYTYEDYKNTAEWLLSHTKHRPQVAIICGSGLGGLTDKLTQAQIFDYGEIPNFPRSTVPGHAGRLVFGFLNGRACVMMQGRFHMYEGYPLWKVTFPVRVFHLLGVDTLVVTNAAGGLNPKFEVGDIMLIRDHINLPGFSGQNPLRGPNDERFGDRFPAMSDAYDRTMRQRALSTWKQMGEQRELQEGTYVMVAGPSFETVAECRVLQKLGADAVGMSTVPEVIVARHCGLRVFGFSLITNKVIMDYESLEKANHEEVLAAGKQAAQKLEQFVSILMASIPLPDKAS
# [3] = target: T3, Purine nucleoside phosphorylase (Bos taurus, UniProt P55859); assay: Inhibition of bovine PNP
# T3 sequence (P55859 whole entry): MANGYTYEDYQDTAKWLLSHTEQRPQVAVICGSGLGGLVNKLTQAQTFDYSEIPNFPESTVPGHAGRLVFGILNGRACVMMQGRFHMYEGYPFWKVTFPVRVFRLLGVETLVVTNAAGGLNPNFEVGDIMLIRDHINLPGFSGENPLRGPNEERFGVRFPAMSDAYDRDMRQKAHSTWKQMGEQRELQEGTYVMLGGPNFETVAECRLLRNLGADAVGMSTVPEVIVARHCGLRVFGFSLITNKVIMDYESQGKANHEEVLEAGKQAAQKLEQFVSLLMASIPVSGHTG
# [4] = target: T4, 5'-methylthioadenosine/S-adenosylhomocysteine nucleosidase (Streptococcus pneumoniae serotype 4 (strain ATCC BAA-334 / TIGR4), UniProt A0A0H2UPP7); assay: Inhibition of Streptococcus pneumoniae MTAN
# T4 sequence (A0A0H2UPP7 whole entry): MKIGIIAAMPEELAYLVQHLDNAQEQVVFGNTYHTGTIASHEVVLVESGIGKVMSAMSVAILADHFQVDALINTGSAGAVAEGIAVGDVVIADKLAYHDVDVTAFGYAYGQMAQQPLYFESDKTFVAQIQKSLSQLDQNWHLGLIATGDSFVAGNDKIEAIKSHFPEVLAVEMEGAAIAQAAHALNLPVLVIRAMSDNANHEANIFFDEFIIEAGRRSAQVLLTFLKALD
# [5] = target: 5'-methylthioadenosine/S-adenosylhomocysteine nucleosidase (Escherichia coli O157:H7, UniProt P0AF14)
# Sequence of 5'-methylthioadenosine/S-adenosylhomocysteine nucleosidase (Escherichia coli O157:H7, UniProt P0AF14) (P0AF14 whole entry): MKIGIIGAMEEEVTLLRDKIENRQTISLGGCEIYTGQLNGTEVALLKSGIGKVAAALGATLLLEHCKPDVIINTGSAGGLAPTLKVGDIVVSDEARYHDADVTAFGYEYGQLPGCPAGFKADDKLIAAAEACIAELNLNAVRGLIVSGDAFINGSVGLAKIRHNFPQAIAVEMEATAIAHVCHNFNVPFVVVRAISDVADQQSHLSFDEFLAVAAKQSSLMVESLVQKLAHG
# [6] = target: T5, S-methyl-5'-thioadenosine phosphorylase (Homo sapiens, UniProt Q13126); assay: Inhibition of human MTAP
# T5 sequence (Q13126 whole entry): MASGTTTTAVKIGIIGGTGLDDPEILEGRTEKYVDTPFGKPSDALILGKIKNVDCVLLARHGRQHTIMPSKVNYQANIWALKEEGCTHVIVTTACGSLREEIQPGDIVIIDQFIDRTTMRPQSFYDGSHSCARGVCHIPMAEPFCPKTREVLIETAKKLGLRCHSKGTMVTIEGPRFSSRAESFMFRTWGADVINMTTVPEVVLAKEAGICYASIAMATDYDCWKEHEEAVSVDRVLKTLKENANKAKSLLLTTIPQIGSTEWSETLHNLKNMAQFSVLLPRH
Structure (SMILES),Ki [1],Ki [2],Ki [3],Ki [4],Ki [5],Ki [6]
O=c1[nH]cnc2c(CN3CC(CO)C3)c[nH]c12,> 10000 nM,,,,,
O=c1[nH]cnc2c(CN3C(CO)CC3CO)c[nH]c12 (stereo not drawn),1290 nM,12.9 nM,16 nM,,,
CSC[C@H]1CN(Cc2c[nH]c3c(N)ncnc23)C[C@@H]1O,,,,24 nM,0.002 nM,0.09 nM
CSCC1(CO)CN(Cc2c[nH]c3c(N)ncnc23)C1,,,,150 nM,0.84 nM,
O=c1[nH]cnc2c(CN3[C@@H](CO)C[C@@H]3CO)c[nH]c12 (racemic),580 nM,280 nM,360 nM,,,
O=c1[nH]cnc2c(CN3CC(CO)(CO)C3)c[nH]c12,> 10000 nM,,,,,
CSCC1CN(Cc2c[nH]c3c(N)ncnc23)C1,,,,84 nM,0.45 nM,
O=c1[nH]cnc2c(CN3C[C@H](CO)[C@@H](O)C3)c[nH]c12 [ULODESINE],0.5 nM,0.0107 nM,0.1 nM,,,
